Assay results published in paper PMC8330742, “New benzothieno[2,3-c]pyridines as non-steroidal CYP17 inhibitors: design, synthesis, anticancer screening, apoptosis induction, and in silico ADME profile studies” (Journal of Enzyme Inhibition and Medicinal Chemistry, 2021).

How the values were obtained:
[1] = tested on: CCRF-CEM; assay: NCI-60 SRB screen; type: cell-based; details: Homo sapiens, single dose 10^−5 M, Leukaemia, read-out: Growth inhibition (%)
[2] = tested on: HL-60(TB); assay: NCI-60 SRB screen; type: cell-based, human; details: Homo sapiens; single dose 10^−5 M; HL-60(TB), Leukaemia; read-out: Growth inhibition (%)
[3] = tested on: K-562; assay: NCI-60 SRB screen; type: cell-based, human; details: Homo sapiens, K562; single dose 10^−5 M; K-562, Leukaemia; read-out: Growth inhibition (%)
[4] = tested on: MOLT-4; assay: NCI-60 SRB screen; type: cell-based; details: Homo sapiens; single dose 10^−5 M; MOLT-4, Leukaemia; read-out: Growth inhibition (%)
[5] = tested on: SR; assay: NCI-60 SRB screen; type: cell-based; details: Homo sapiens, single dose 10^−5 M, Leukaemia, read-out: Growth inhibition (%)
[6] = tested on: A549/ATCC; assay: NCI-60 SRB screen; type: cell-based, human; details: Homo sapiens, single dose 10^−5 M, Non-small cell lung carcinoma, read-out: Growth inhibition (%)
[7] = tested on: EKVX; assay: NCI-60 SRB screen; type: cell-based, human; details: Homo sapiens, single dose 10^−5 M, Non-small cell lung carcinoma, read-out: Growth inhibition (%)
[8] = tested on: HOP-62; assay: NCI-60 SRB screen; type: cell-based, human; details: Homo sapiens; single dose 10^−5 M; HOP-62, Non-small cell lung carcinoma; read-out: Growth inhibition (%)
[9] = tested on: HOP-92; assay: NCI-60 SRB screen; type: cell-based, human; details: Homo sapiens; single dose 10^−5 M; HOP-92, Non-small cell lung carcinoma; read-out: Growth inhibition (%)
[10] = tested on: NCI-H226; assay: NCI-60 SRB screen; type: cell-based, human; details: Homo sapiens; single dose 10^−5 M; NCI-H226, Non-small cell lung carcinoma; read-out: Growth inhibition (%)
[11] = tested on: NCI-H23; assay: NCI-60 SRB screen; type: cell-based, human; details: Homo sapiens; single dose 10^−5 M; NCI-H23, Non-small cell lung carcinoma; read-out: Growth inhibition (%)
[12] = tested on: NCI-H322M; assay: NCI-60 SRB screen; type: cell-based, human; details: Homo sapiens, single dose 10^−5 M, Non-small cell lung carcinoma, read-out: Growth inhibition (%)
[13] = tested on: NCI-H460; assay: NCI-60 SRB screen; type: cell-based, human; details: Homo sapiens; single dose 10^−5 M; NCI-H460, Non-small cell lung carcinoma; read-out: Growth inhibition (%)
[14] = tested on: NCI-H522; assay: NCI-60 SRB screen; type: cell-based, human; details: Homo sapiens; single dose 10^−5 M; NCI-H522, Non-small cell lung carcinoma; read-out: Growth inhibition (%)
[15] = tested on: COLO 205; assay: NCI-60 SRB screen; type: cell-based, human; details: Homo sapiens; single dose 10^−5 M; COLO 205, Colon cancer; read-out: Growth inhibition (%)
[16] = tested on: HCC-2998; assay: NCI-60 SRB screen; type: cell-based, human; details: Homo sapiens; single dose 10^−5 M; HCC-2998, Colon cancer; read-out: Growth inhibition (%)
[17] = tested on: HCT-116; assay: NCI-60 SRB screen; type: cell-based, human; details: Homo sapiens; single dose 10^−5 M; HCT-116, Colon cancer; read-out: Growth inhibition (%)
[18] = tested on: HCT-15; assay: NCI-60 SRB screen; type: cell-based, human; details: Homo sapiens; single dose 10^−5 M; HCT-15, Colon cancer; read-out: Growth inhibition (%)
[19] = tested on: HT-29; assay: NCI-60 SRB screen; type: cell-based; details: Homo sapiens; single dose 10^−5 M; HT-29, Colon cancer; read-out: Growth inhibition (%)
[20] = tested on: KM12; assay: NCI-60 SRB screen; type: cell-based, human; details: Homo sapiens; single dose 10^−5 M; KM12, Colon cancer; read-out: Growth inhibition (%)
[21] = tested on: SW-620; assay: NCI-60 SRB screen; type: cell-based; details: Homo sapiens; single dose 10^−5 M; SW-620, Colon cancer; read-out: Growth inhibition (%)
[22] = tested on: SF-268; assay: NCI-60 SRB screen; type: cell-based, human; details: Homo sapiens; single dose 10^−5 M; SF-268, CNS cancer; read-out: Growth inhibition (%)
[23] = tested on: SF-295; assay: NCI-60 SRB screen; type: cell-based, human; details: Homo sapiens; single dose 10^−5 M; SF-295, CNS cancer; read-out: Growth inhibition (%)
[24] = tested on: LOX IMVI; assay: NCI-60 SRB screen; type: cell-based, human; details: Homo sapiens, single dose 10^−5 M, Melanoma, read-out: Growth inhibition (%)
[25] = tested on: MALME-3M; assay: NCI-60 SRB screen; type: cell-based, human; details: Homo sapiens, single dose 10^−5 M, Melanoma, read-out: Growth inhibition (%)
[26] = tested on: M14; assay: NCI-60 SRB screen; type: cell-based, human; details: Homo sapiens; single dose 10^−5 M; M14, Melanoma; read-out: Growth inhibition (%)
[27] = tested on: MDA-MB-435; assay: NCI-60 SRB screen; type: cell-based; details: Homo sapiens, MDA-MB-435, read-out: Growth inhibition (%)
[28] = tested on: SK-MEL-2; assay: NCI-60 SRB screen; type: cell-based, human; details: Homo sapiens; single dose 10^−5 M; SK-MEL-2, Melanoma; read-out: Growth inhibition (%)
[29] = tested on: SK-MEL-28; assay: NCI-60 SRB screen; type: cell-based; details: Homo sapiens; single dose 10^−5 M; SK-MEL-28, Melanoma; read-out: Growth inhibition (%)
[30] = tested on: SK-MEL-5; assay: NCI-60 SRB screen; type: cell-based, human; details: Homo sapiens; single dose 10^−5 M; SK-MEL-5, Melanoma; read-out: Growth inhibition (%)
[31] = tested on: UACC-257; assay: NCI-60 SRB screen; type: cell-based, human; details: Homo sapiens; single dose 10^−5 M; UACC-257, Melanoma; read-out: Growth inhibition (%)
[32] = tested on: UACC-62; assay: NCI-60 SRB screen; type: cell-based, human; details: Homo sapiens; single dose 10^−5 M; UACC-62, Melanoma; read-out: Growth inhibition (%)
[33] = tested on: IGROV1; assay: NCI-60 SRB screen; type: cell-based, human; details: Homo sapiens, IGROV-1; single dose 10^−5 M; IGROV1, Ovarian cancer; read-out: Growth inhibition (%)
[34] = tested on: OVCAR-3; assay: NCI-60 SRB screen; type: cell-based, human; details: Homo sapiens; single dose 10^−5 M; OVCAR-3, Ovarian cancer; read-out: Growth inhibition (%)
[35] = tested on: OVCAR-4; assay: NCI-60 SRB screen; type: cell-based, human; details: Homo sapiens; single dose 10^−5 M; OVCAR-4, Ovarian cancer; read-out: Growth inhibition (%)
[36] = tested on: OVCAR-8; assay: NCI-60 SRB screen; type: cell-based, human; details: Homo sapiens; single dose 10^−5 M; OVCAR-8, Ovarian cancer; read-out: Growth inhibition (%)
[37] = tested on: NCI/ADR-RES; assay: NCI-60 SRB screen; type: cell-based, human; details: Homo sapiens, single dose 10^−5 M, Ovarian cancer, read-out: Growth inhibition (%)
[38] = tested on: 786-0; assay: NCI-60 SRB screen; type: cell-based; details: Homo sapiens; single dose 10^−5 M; 786-0, Renal cancer; read-out: Growth inhibition (%)
[39] = tested on: ACHN; assay: NCI-60 SRB screen; type: cell-based; details: Homo sapiens, single dose 10^−5 M, Renal cancer, read-out: Growth inhibition (%)
[40] = tested on: CAKI-1; assay: NCI-60 SRB screen; type: cell-based, human; details: Homo sapiens; single dose 10^−5 M; CAKI-1, Renal cancer; read-out: Growth inhibition (%)
[41] = tested on: RXF 393; assay: NCI-60 SRB screen; type: cell-based, human; details: Homo sapiens; single dose 10^−5 M; RXF 393, Renal cancer; read-out: Growth inhibition (%)
[42] = tested on: SN12C; assay: NCI-60 SRB screen; type: cell-based, human; details: Homo sapiens, SN12C; single dose 10^−5 M; SN 12 C, Renal cancer; read-out: Growth inhibition (%)
[43] = tested on: TK-10; assay: NCI-60 SRB screen; type: cell-based, human; details: Homo sapiens; single dose 10^−5 M; TK-10, Renal cancer; read-out: Growth inhibition (%)
[44] = tested on: UO-31; assay: NCI-60 SRB screen; type: cell-based, human; details: Homo sapiens; single dose 10^−5 M; UO-31, Renal cancer; read-out: Growth inhibition (%)
[45] = tested on: panel of 60 cancer cell lines; assay: NCI-60 SRB screen, mean or range over the panel; type: cell-based, human; details: Homo sapiens; mean over the cell lines; single dose 10^−5 M; read-out: Mean growth inhibition (%)

Molecule O=[N+]([O-])c1cccc(C2NC(N3CCCCC3)=C(Cl)c3c2sc2c(F)cccc32)c1 (stereo not drawn) [Compound 8c, 4-Chloro-3-(piperidin-1-yl)-8-fluoro-1-(3-nitrophenyl)-1,2-dihydro [1]benzothieno[2,3-c]pyridine] has an inhibition at 10 µM [1] of 30.3%, an inhibition at 10 µM [2] of 18.7% and an inhibition at 10 µM [3] of 14.1%. The inhibition at 10 µM [4] was 35.6%, the inhibition at 10 µM [5] was 10.1% and the inhibition at 10 µM [6] was 5.05%. For the same molecule, the inhibition at 10 µM [7] was 19.1%, the inhibition at 10 µM [8] was 5.22% and the inhibition at 10 µM [9] was 9.27%. It also gave an inhibition at 10 µM [10] of 28.2%, an inhibition at 10 µM [11] of 3.42% and an inhibition at 10 µM [12] of -0.59%. The inhibition at 10 µM [13] was 3%, the inhibition at 10 µM [14] was 17.7% and the inhibition at 10 µM [15] was -12.7%. The inhibition at 10 µM [16] was -6.85%, the inhibition at 10 µM [17] was 1.95% and the inhibition at 10 µM [18] was 3.84%. For the same molecule, the inhibition at 10 µM [19] was -2.62%, the inhibition at 10 µM [20] was 3.41% and the inhibition at 10 µM [21] was 1.71%. It also gave an inhibition at 10 µM [22] of 6.19%, an inhibition at 10 µM [23] of -6.6% and an inhibition at 10 µM [24] of -0.7%. The inhibition at 10 µM [25] was 4.61%, the inhibition at 10 µM [26] was 1.39% and the inhibition at 10 µM [27] was 2%. The inhibition at 10 µM [28] was 2.66%, the inhibition at 10 µM [29] was -16.7% and the inhibition at 10 µM [30] was 0.27%. The inhibition at 10 µM [31] was -10.3%, the inhibition at 10 µM [32] was 8.57% and the inhibition at 10 µM [33] was 17.4%. For the same molecule, the inhibition at 10 µM [34] was -1.68%, the inhibition at 10 µM [35] was 12.3% and the inhibition at 10 µM [36] was -6.18%. It also gave an inhibition at 10 µM [37] of -2.62%, an inhibition at 10 µM [38] of -0.24% and an inhibition at 10 µM [39] of 6.2%. It also gave an inhibition at 10 µM [40] of 18.8%, an inhibition at 10 µM [41] of -15.6% and an inhibition at 10 µM [42] of 3.66%. It also gave an inhibition at 10 µM [43] of -22.4%, an inhibition at 10 µM [44] of 38% and an inhibition at 10 µM [45] of 7.22%.
